In US5378700A, “Fused pyrimidine derivative, process for preparation of same and pharmaceutical preparation comprising same as active ingredient” (Teijin Limited, priority 1989, dated 1995):

Experiments:
Type in all cases: in vivo, Male Wistar strain rats
[1] = test system: hypoxemia model animals (acetic acid); assay: Effect on partial pressure of gases in arterial blood, intravenous, Method B (acetic acid induced hypoxemia); conditions: 2.0% acetic acid, intravenous 0.1 mg/kg/min, 10 min, after minus before administration
Experimental: (§1) Example 75: Effect on Partial Pressure Value of Gases in Arterial Blood (Intravenous Injection System)
Male Wistar strain rats (body weight about 300 g) were anesthetized with halothane inhalant, and then 2.0% acetic acid was intratrachealy injected at 0.6 ml/kg to induce a respiratory insufficiency. The animals were intraperitonealy anesthetized with urethane-α-chloralose, and a cannula was inserted into the femoral artery. After the hypoxemic state (PaO2 : 60-70 mmHg) was observed a compound in accordance with the present invention (test substance) was continuously injected into these hypoxemia model animals intravenously (0.1 mg/kg/min, 10 min), and then a partial pressure value of gases (PaO2, PaCO2) in arterial blood was immediately determined.

[2] = test system: hypoxemia state (acetic acid); assay: Effect on partial pressure of gases in arterial blood, oral administration (acetic acid induced hypoxemia); conditions: 2.0% acetic acid, 60 min after administration
Experimental: Example 76: Effect on Partial Pressure Value of Gases in Arterial Blood (Oral Administration System)
Male Wistar strain rats (body weight about 250 g) fasted overnight were anesthetized with halothane inhalant, and then a cannula was inserted into the femoral artery. After the animals recovered from the anesthesia, they were again anesthetized with halothane inhalant, and then 2.0% acetic acid was intratrachealy injected at 0.8 ml/kg to induce a hypoxemia state. After the hypoxemic state was observed over about 60 min., a compound in accordance with the present invention (test substance) was orally administered to the animals. On 60 min. after the administration, the partial pressure value of gases (PaO2, PaCO2) in arterial blood was determined.

[3] = test system: hypoxemia model animals (carbon powder); assay: Effect on partial pressure of gases in arterial blood, intravenous, Method A (carbon powder induced hypoxemia); conditions: intravenous 0.1 mg/kg/min, 10 min, after minus before administration
Experimental: as §1
Male Wistar strain rats (body weight about 300 g) were anesthetized intra-peritonealy with urethane, and a cannula was inserted into the respiratory tract and the femoral artery, respectively. A suspension (30-100 μm, 10 mg/ml) of carbon powder in a corn oil was intratrachealy injected to induce a hypoxemia state (PaO2 : 50-60 mmHg). A compound in the present invention was continuously injected into these hypoxemia model animals intravenously (0.1 mg/kg/min, 10 min), and then a partial pressure value of gases (PaO2, PaCO2) in arterial blood was immediately determined.

Row | SMILES | PaCO2 Decreasing Activity ΔPaCO2 [1] | PaO2 Increasing Activity ΔPaO2 [1] | PaCO2 Decreasing Activity ΔPaCO2 [2] | PaO2 Increasing Activity ΔPaO2 [2] | PaCO2 Decreasing Activity ΔPaCO2 [3] | PaO2 Increasing Activity ΔPaO2 [3]
1 | C=CCNc1nc(NCC=C)c2c(n1)N(C)CCC2 [Compound 121] | -1.2 mmHg | +15.9 mmHg | + (-3--6 mmHg) | ++ (+6-+9 mmHg) | – | –
2 | C=CCNc1nc2c(c(N3CCCCCC3)n1)CCCN2CC=C [Compound 153] | -0.9 mmHg | +10.0 mmHg | – | – | – | –
3 | C=CCNc1nc(NCCc2ccccc2)c2c(n1)N(CC=C)CCC2 [Compound 171] | -13.4 mmHg | +17.4 mmHg | ± (0--3 mmHg) | + (+3-+6 mmHg) | – | –
4 | C=CCNc1nc2c(c(N3CCCC3)n1)CCCN2CC=C [Compound 143] | -0.7 mmHg | +8.1 mmHg | ± (0--3 mmHg) | + (+3-+6 mmHg) | – | –
5 | C=CCNc1nc2c(c(N3CCN(C(c4ccc(F)cc4)c4ccc(F)cc4)CC3)n1)CCCN2CC=C [Compound 159] | – | – | – | – | +0.4 mmHg | +4.8 mmHg
6 | C=C(C)CNc1nc2c(c(N3CCN(C(c4ccc(F)cc4)c4ccc(F)cc4)CC3)n1)CCCN2 [Compound 112] | – | – | – | – | -2.0 mmHg | +4.6 mmHg
7 | C=CCNc1nc(SCCc2ccccc2)c2c(n1)N(CC=C)CCC2 [Compound 204] | +2.2 mmHg | +15.0 mmHg | – | – | – | –
8 | C=CCNc1nc(SC(C)c2ccccc2)c2c(n1)N(CC=C)CCC2 (stereo not drawn) [Compound 203] | -2.1 mmHg | +9.5 mmHg | – | – | – | –
9 | C=CCNc1nc(N(C)C)c2c(n1)N(CC=C)CCC2 [Compound 184] | -3.2 mmHg | +10.4 mmHg | – | – | – | –
10 | C=CCNc1nc(NCC=C)c2c(n1)N(CC=C)CCC2 [Compound 168] | -12.2 mmHg | +14.4 mmHg | – | – | – | –
11 | C=CCNc1nc2c(c(N3CCCCC3)n1)CCCN2CC=C [Compound 145] | -0.8 mmHg | +11.2 mmHg | ± (0--3 mmHg) | + (+3-+6 mmHg) | – | –
12 | C=CCNc1nc2c(c(N3CCc4ccccc4C3)n1)CCCN2CC=C [Compound 214] | +2.2 mmHg | +9.8 mmHg | – | – | – | –
13 | C=CCNc1nc(N(C)Cc2ccccc2)c2c(n1)N(CC=C)CCC2 [Compound 189] | -7.6 mmHg | +16.0 mmHg | – | – | – | –
14 | C=CCNc1nc(NCC=C)c2c(n1)N(Cc1ccccc1)CCC2 [Compound 233] | -4.0 mmHg | +8.6 mmHg | – | – | – | –
15 | C=CCNc1nc2c(c(N3CCOCC3)n1)CCCN2CC=C [Compound 209] | -2.4 mmHg | +7.6 mmHg | + (-3--6 mmHg) | + (+3-+6 mmHg) | – | –
16 | C=CCNc1nc(N2CC=CCC2)c2c(n1)N(CC=C)CCC2 [Compound 213] | -2.9 mmHg | +10.3 mmHg | – | – | – | –
17 | C=CCNc1nc2c(c(N3CCN(C)CC3)n1)CCCN2CC=C [Compound 155] | +2.6 mmHg | +6.6 mmHg | + (-3--6 mmHg) | ++ (+6-+9 mmHg) | – | –
18 | C=CCNc1nc2c(c(N3CCC(c4ccccc4)CC3)n1)CCCN2CC=C [Compound 146] | +2.5 mmHg | +6.6 mmHg | – | – | – | –
